Among the data in PubChem BioAssay AID1259333 (Broad Institute, 2017) are AC50 values, retold here.

The test system of this test is cytotoxicity, CellTiter-Glo ATP luminescence. The experiment in a line: cell cytotoxicity, dose response, cytotoxicity control, CellTiter-Glo (AID 1259333). A general note: ATP-based viability assays read luminescence as a measure of living cells.

Calls of active or inactive are those of the source. The rule behind the calls is not given here; tested in parental BL2 cells.

For `C[C@@H]1O[C@@H](O[C@H]2C[C@@H](O)[C@]3(CO)[C@H]4[C@H](O)C[C@]5(C)[C@@H](C6COC(=O)C6)CC[C@]5(O)[C@@H]4CC[C@]3(O)C2)[C@H](O)[C@H](O)[C@H]1O` (stereo partly drawn), the half-maximal activity concentration (AC50) was 1.87 µM. As for `CN(C)C(=S)SSC(=S)N(C)C`, the half-maximal activity concentration (AC50) was 1.36 µM.

In the case of `C[n+]1c(-c2ccccc2)cc2c(=Cc3ccc([N+](=O)[O-])cc3)c3ccccc3n21`, the AC50 is 9.92 µM. The same measure for `C[C@@H]1CN([C@H](C)CO)C(=O)c2c(c3ccccc3n2C)-c2ccccc2CO[C@H]1CN(C)C(=O)Nc1cccc(Cl)c1Cl`: 10.1 µM.

On to `CC1CC(C)C(=NNC(N)=O)C(C(O)CC2CCC(=O)NC2=O)C1` (stereo not drawn), for which the AC50 is > 20 µM (inactive).

For `C[C@@H]1CCCCO[C@H](CN(C)CC2CCCCC2)[C@H](C)CN([C@@H](C)CO)C(=O)c2cc(NC(=O)Nc3ccc(C(F)(F)F)cc3)ccc2O1`, the AC50 is 4.91 µM. For `N#C[C@H]1[C@H](c2ccc(C#Cc3ccccc3F)cc2)[C@@H](CO)N1C(=O)C1CC1`, the AC50 is > 20 µM (inactive).

As to `O=C1C=CC2C3C(=O)N(c4ccccc4)C(=O)C3C1N2Cc1ccccc1` (stereo not drawn), the half-maximal activity concentration (AC50) was 8.98 µM. Next, `COC(=O)c1nn(-c2ccc(-c3ccccc3)cc2)cc1O`: > 20 µM (inactive); `COc1cccc(C#Cc2ccc([C@H]3[C@@H](C#N)N(C(=O)c4ccccn4)[C@@H]3CO)cc2)c1`: 9.74 µM. In the case of `C[C@@H]1CCCCO[C@@H](CN(C)Cc2ccc(Cl)c(Cl)c2)[C@H](C)CN([C@H](C)CO)C(=O)c2cc(NS(=O)(=O)c3cccs3)ccc2O1`, the half-maximal activity concentration (AC50) is 8.68 µM.

As to `Cc1ccc(S(=O)(=O)C=CS(=O)(=O)c2ccc(C)cc2)cc1`, the half-maximal activity concentration (AC50) was 3.97 µM. Next, `COc1ccc(CC2C(=O)NC(C)C(=O)N(C)C3Cc4ccc(cc4)Oc4cc(ccc4O)CC(C(=O)NC(C)C(=O)NC(C)C(=O)N2C)N(C)C3=O)cc1` (stereo not drawn): 10.8 µM; `CC1OC(CC(=O)O)CC2=C1C(=O)c1c(O)cccc1C2=O` (stereo not drawn): 1.06 µM; `O=C(Nc1ccc([N+](=O)[O-])cc1Cl)c1cc(Cl)ccc1O`: > 7 µM (inactive). With `COc1cc(C(=O)CCN2CCC(c3ccccc3)C2)cc(OC)c1OC` (stereo not drawn), the AC50 was 7.27 µM. With `N#C[C@@H]1[C@H](c2ccc(C#CC3CCCC3)cc2)[C@@H](CO)N1C(=O)Nc1ccc(F)cc1`, the AC50 was > 20 µM (inactive). Next, `O=C(Nc1ccccc1F)N1CCCCN2[C@H](CO)[C@H](c3ccc(/C=C/c4ccccc4)cc3)[C@H]2C1`: > 20 µM (inactive). For `N#C[C@@H]1[C@H](c2ccc(C#CC3CCCCC3)cc2)[C@@H](CO)N1C(=O)Nc1ccc(F)cc1`, the AC50 is > 20 µM (inactive).

On to `[O-]C(=C(C(=S)Nc1cccc2ccccc12)[n+]1ccccc1)c1ccc2c(c1)OCCO2`, for which the AC50 was > 7 µM (inactive). For the compound `Cc1cc(C)nc(Sc2ncnc(N)c2[N+](=O)[O-])n1`, the AC50 is > 20 µM (inactive). Next, `CC(C)C#Cc1ccc([C@H]2[C@@H](CO)N(C(=O)c3ccccn3)[C@H]2C#N)cc1`: > 20 µM (inactive).

For the compound `COc1ccc2c3c([nH]c2c1)[C@H](CO)N(C(=O)Nc1ccc(F)cc1)CC31CCN(C(=O)c2ccccc2F)CC1`, the AC50 is 8.44 µM. The same measure for `C[C@H]1O[C@@H](O[C@H]2[C@@H](O)C[C@H](O[C@H]3[C@@H](O)C[C@H](O[C@H]4CC[C@]5(C)C6CC[C@]7(C)[C@@H](C8=CC(=O)OC8)CC[C@]7(O)C6CC[C@@H]5C4)O[C@@H]3C)O[C@@H]2C)C[C@H](O)[C@@H]1O` (stereo partly drawn): 2.2 µM; for `NC(=O)c1c(Br)n(C2OC(CO)C(O)C2O)c2ncnc(N)c12` (stereo not drawn): 3.14 µM; for `CN1C(=O)/C(=N\OC(=O)c2cccc3ccccc23)c2ccccc21`: 4.04 µM.

With `COc1ccccc1C(=O)Nc1ccc2c(c1)C(=O)N(C)[C@H]1CC[C@H](CC(=O)Nc3cccc(C(C)C)c3)O[C@@H]1CO2`, the AC50 is > 20 µM (inactive). The same measure for `N#C[C@@H]1[C@H](c2ccc(C#CC3CCCC3)cc2)[C@H](CO)N1C(=O)Cc1ccccn1`: > 20 µM (inactive).

As usually defined, the AC50 is the concentration giving half of the maximal activity seen.
